# Square brackets hold non-standard residues; d marks the D form. * marks the point of attachment. 2Nal = N[C@@H](Cc1ccc2ccccc2c1)C(=O)O; Propionyl = CCC(=O)*; Sar = CNCC(=O)O
# Columns and labels:
# Format in all cases: in vivo, mouse
# [1] = test system: C57BL/6 mice exposed to TBI; assay: 30-day survival after TBI in C57BL/6 mice
# From the text: (§1) Total Body Irradiation (TBI). Mice were irradiated bilaterally in the Cobalt-60 gamma-irradiation facility at the AFRRI. These animals were placed in well-ventilated plexiglass chambers made specifically for irradiating mice. An alanine/Electron Spin Resonance (ESR) dosimetry system (American Society for Testing and Material Standard E 1607) was used to measure the dose rates in the cores of acrylic phantoms (3 inches long and 1 inch in diameter) located in all empty slots of the exposure rack in the plexiglass chamber. ESR signals were measured with a calibration curve based on standard calibration dosimeters provided by the National Institute of Standard and Technology (NIST, Gaithersburg, Md.). The calibration curve was verified by inter-comparison with the National Physical Laboratory (NPL) in the United Kingdom. The corrections applied to the measured dose rates in phantoms were for decay of the Co-60 source and for a small difference in mass-energy absorption coefficients for water and soft tissue at the Co-60 energy level. Kaplan-Meier survival curves were plotted using GraphPad software; and trend in survival is compared between vehicle and drug-treated group.
# (§2) The survival efficacy of RWJ-800088 was tested in C57BL/6 (another strain of mice with different radiation sensitivity compared to CD2F1) in males and females. […] All animals in saline treated groups (males and females) died whereas there was no mortality in RWJ-800088 treated groups 30 days post-TBI. […] All animals in saline treated groups died whereas there was 92% survival observed in the RWJ-800088 (24 h pre-TBI) treated group 30 days post-TBI.
# To confirm the survival benefit provided by RWJ-800088 administration following TBI in another mouse strain with difference in radiation sensitivity, C57BL/6 male mice were irradiated at 8.0 Gy (˜LD70/30) followed by administration of a single subcutaneous dose of RWJ-800088 (1 mg/kg) at 24 h after TBI. The percentage of mice surviving on day 30 post-TBI for the RWJ-800088 treated group was 83% and for the saline treated group it was only 13% (2).
# [2] = test system: C3H/HeN male mice exposed to TBI; assay: 30-day survival after TBI in C3H/HeN mice; conditions: C3H/HeN M, 8.75 Gy, 3 mg/kg single dose, Pre −24 hr; for Survival treatment: 3 mg/kg
# From the text: as §1, §2
# [3] = test system: CD2F1 mice exposed to TBI (7 Gy); assay: Sternal bone marrow histopathology (cellularity, megakaryocytes) after 7 Gy TBI; conditions: day 7 post-TBI 7 Gy; 24 h pre-TBI administration
# Description: Sternal histopathology: Following blood collection, animals were euthanized, and the sterna were collected on 0 (2 h post-TBI), 1, 3, 7, 15 and 30 days post-TBI. The sterna were fixed in a 20:1 volume of fixative (10^0/% buffered formalin) to tissue for at least 24 h and up to 7 days. Fixed sterna were decalcified for 3 h in 12-18% sodium EDTA (pH 7.4-7.5), and specimens were dehydrated using graded ethanol concentrations and embedded in paraffin. Longitudinal 5 μm sections were stained with regular hematoxylin and eosin (H&E) stain. A board-certified veterinary pathologist conducted blinded histopathological evaluation of these samples. The bone marrow was evaluated in situ within sternebrae and graded for total cellularity and megakaryocyte numbers averaged per 10 high power fields at 40× magnification using a BX41 Olympus microscope (Olympus Corporation, Minneapolis, Minn.). […]
# Bone marrow cellularity and architecture of CD2F1 mice treated 24 h pre-TBI with vehicle or RWJ-800088 were evaluated by the AFRRI pathologist (FIG. 8). Bone marrow cellularity was determined by evaluating the amount of adipose (fat) tissue versus hematopoietic cells (minus, mature red blood cells) on one (10×) high power field (HPF). […]
# Samples were collected on different days post-TBI up to day 30. […] Megakaryocytes were evaluated by averaging the number of cells per 10 (40×) high power fields (HPFs). […]
# [4] = test system: CD21F1 male mice exposed to TBI; assay: Dose reduction factor (DRF) and long-term survival study after TBI
# From the text: Methods: CD21F1 male mice were used in a DRF (dose reduction factor) study to determine LD50/30 for animals administered with RWJ-800088 or it's vehicle (saline). This included irradiating cohorts of 24 animals at various total body irradiation (TBI) doses (Saline: 7.5, 8.0, 8.5, 9.0, 9.5, and 10 Gy; RWJ-800088: 10.5, 11.0, 11.5, 11.75, 12, and 12.5 Gy). Following the 30 day survival study, surviving animals were monitored for up to 1 year with planned collection points at 6 months and 1 year.
# RWJ-800088 administration timing and doses: RWJ-800088 was administered […] at a dose of 1 mg/kg 24 h prior to irradiation.
# [5] = C57BL/6 Both genders, 7.76 Gy, 0.3 mg/kg single dose, Post 6 hr
# [6] = C57BL/6 Both genders, 7.76 Gy, 0.3 mg/kg single dose, Post 24 hr
# [7] = C57BL/6 Both genders, 7.96 Gy, 0.3 mg/kg single dose, Post 6 hr
# [8] = C57BL/6 Both genders, 7.96 Gy, 0.3 mg/kg single dose, Post 24 hr
# [9] = C57BL/6 F, 8.75 Gy, 3 mg/kg single dose, Pre −24 hr
# [10] = C57BL/6 M, 8.75 Gy, 3 mg/kg single dose, Pre −24 hr
# [11] = Group 7, 10.5 Gy, 1 mg/kg 24 h prior to irradiation
# [12] = Group 9, 11.5 Gy, 1 mg/kg 24 h prior to irradiation
# [13] = Group 12, 12.5 Gy, 1 mg/kg 24 h prior to irradiation
substance,measurement,setting,value
methoxypolyethyleneglycol20000-propionyl-L-Isoleucyl-L-Glutamyl-Glycyl-L-Prolyl-L-Threonyl-L-Leucyl-L-Arginyl-L-Glutaminyl-L-2-Naphthylalanyl-L-Leucyl-L-Alanyl-L-Alanyl-L-Arginyl-Sarcosyl-Ne-(methoxypolyethyleneglycol20000-propionyl-L-Isoleucyl-L-Glutamyl-Glycyl-L-Prolyl-L-Threonyl-L-Leucyl-L-Arginyl-L-Glutaminyl-L-2-Naphthylalanyl-L-Leucyl-L-Alanyl-L-Alanyl-L-Arginyl-Sarcosyl-)-Lysinamide ({mPEG 20 kDa-Propionyl}-IEGPTLRQ[2Nal]LAAR[Sar]K-NH2; also: dimer: second identical mPEG-propionyl chain on Lys Nε of C-terminal lysinamide) [RWJ-800088],Survival Differential (Treatment-Vehicle),[1]; [5],25%
same,Survival treatment,[1]; [5],100%
same,Survival Differential (Treatment-Vehicle),[1]; [6],15%
same,Survival treatment,[1]; [6],90%
same,Survival Differential (Treatment-Vehicle),[1]; [7],45%
same,Survival treatment,[1]; [7],100%
same,Survival Differential (Treatment-Vehicle),[1]; [8],20%
same,Survival treatment,[1]; [8],75%
same,Survival Differential (Treatment-Vehicle),[1]; [9],100%
same,Survival treatment,[1]; [9],100%
same,Survival Differential (Treatment-Vehicle),[1]; [10],100%
same,Survival treatment,[1]; [10],100%
same,mortality 30 days post-TBI,"[1]; C57BL/6 male and female, 8.75 Gy (LD100/30), 3 mg/kg 24 h prior to irradiation",no mortality
same,percentage of mice surviving on day 30 post-TBI,"[1]; C57BL/6 male, 8.0 Gy (~LD70/30), single SC dose 1 mg/kg at 24 h after TBI",83%
same,Survival Differential (Treatment-Vehicle),[2],92%
same,Survival treatment,[2],92%
same,Survival treatment,[2]; listed as TPOm,92%
same,megakaryocytes counts in sternal bone marrow,[3],significant recovery
same,DRF value,"[4]; 1 mg/kg 24 h prior to irradiation, 95% CI 1.16-2.54",1.42
same,LD50 value (radiation dose) for RWJ-800088 treated animals,"[4]; 1 mg/kg 24 h prior to irradiation, LD50/30",12.64 Gy
same,# Surviving (6 months),[4]; [11],10/10
same,# Surviving (12 months),[4]; [11],5/5
same,# Surviving (30 days),[4]; [11],24/24
same,# Surviving (6 months),[4]; [12],10/10
same,# Surviving (12 months),[4]; [12],5/5
same,# Surviving (30 days),[4]; [12],22/24
same,# Surviving (12 months),[4]; [13],0/3
same,# Surviving (30 days),[4]; [13],11/24
same,# Surviving (6 months),"[4]; Group 12, 12.5 Gy, two animals were added from 12 Gy",7/10

# Reference: US20220168392A1 (priority 2019, published 2022)
